Data reported in patent publication US20250134853A1, “COMPOUNDS AND METHODS FOR USING GALLOYLATED POLYPHENOLS TO TREAT DISEASES MEDIATED BY THIOL ISOMERASES” (Beth Israel Deaconess Medical Center, Inc., priority 2023, published 2025).
“Also recorded” adds a separate entry of the source. Like-named read-outs stand apart in the source and are kept apart here.

How the values were obtained:
[1] = test system: PDI domain fragments (a, a′, ab, abb′, b′xa′); experiment: Di-eosin-GSSG assay on isolated PDI domain fragments; assay type: biochemical; conditions: for inhibition of isolated a′ domain cleavage of di-eosin-GSSG: 20 μM
Description: (§1) Di-eosin-GSSG disulfide reductase assay. The probe di-eosin glutathione disulfide, di-eosin-GSSG, was prepared by incubating 100 μM of GSSG with 1 mM of eosin isothiocyanate in 100 mM potassium phosphate containing 2 mM EDTA (pH 7.4), at 25° C. overnight in the dark. The mixture was passed down a PD-10 column and different fractions were collected. A fold change of fluorescence (Ex: 520 nm, Em: 550 nm) was calculated using samples subjected to either vehicle or 20 mM of DTT. Any fraction with a fold change >5 was kept. Using a stock of 10 mM eosin isothiocyanate, a standard curve was generated and concentration of samples were determined accordingly. Di-eosin-GSSG cleavage of purified thiol isomerases and PDI domains was monitored in a 96-well fluorescence plate format. PDI, CGXC-PDI variants, ERp5, ERp57, ERp46 and PDI domains were assayed at 50 nM in the presence or absence of the indicated small molecules. The assay included a thiol isomerase assay buffer (39 mM KH2PO4, 61 mM K2HPO4, 2 mM EDTA, 5 M DTT, pH 7.4) and 150 nM of the di-eosin-GSSG probe. The increase in fluorescence was determined for 60 min by excitation at 520 nm and emission at 550 nm in a Synergy Biotek 4. The reduction of 150 nM di-eosin-GSSG by 5 μM DTT in the presence or absence of mentioned small molecule or proteins served as a negative control.

[2] = target: T1, PDI (Homo sapiens, UniProt P07237); experiment: Di-eosin-GSSG disulfide reductase assay, PDI; assay type: biochemical
T1 construct: FLAG; made in house; host or cells: Escherichia coli Origami B (DE3)
Description: as §1

[3] = test system: thrombus formation in carotid artery after FeCl3; experiment: Ferric chloride thrombosis model; assay type: in vivo, C57Bl/6J mice; conditions: punicalagin by oral gavage
Description: Wildtype C57Bl/6J mice were exposed to 100 μg/g punicalagin via oral gavage (n=5) or vehicle (n=7). The carotid artery was surgically isolated, exposed to 10% w/v FeCl3 for 3 min, and visualized by fluorescence microscopy. Time to occlusion was monitored.
Ferric chloride thrombosis model. Thrombus formation induced by ferric chloride was assayed as previously described in Li W, et al. Circ. Res. 115:997-1006, 2014. The mice were treated by oral gavage with 100 μg/g punicalagin or vehicle control for 90 min prior to injury. Before the 90 min time point, the mice were anesthetized with a cocktail of 125 mg/kg ketamine and 12 mg/kg xylazine. The left jugular vein was cannulated for infusion of a DyLight 649 conjugated antibody against GPIbβ (Emfret Analytics; 0.1 μg/g) and 50 mg/kg pentobarbital for maintenance anesthetics. […] Thrombi formation was observed using a 10×0.3 NA water immersion objective mounted to an AX-70 fluorescence microscope (Olympus Japan) equipped with a CCD camera (ORCA Flash 4.0, Hamamatsu Photonics, Japan). Data were analyzed by Slidebook 6.0 (Intelligent Imaging Innovations).
Punicalagin inhibits thrombus formation. […] The ability of orally delivered punicalagin to inhibit thrombus formation following vascular injury was assessed. […] Vessel patency was visualized by fluorescence microscopy using anti-GPIbβ antibody to monitor for vascular occlusion. […]

[4] = target: T2, SARS-CoV-2 M^pro (Severe acute respiratory syndrome coronavirus 2, UniProt P0DTD1)
[5] = test system: bleeding following tail clip; experiment: Tail clip assay of hemostasis; conditions: punicalagin ingestion
[6] = test system: recombinant PDI, ERp57, and ERp5; experiment: Di-eosin-GSSG assay, thiol isomerases at 20 μM compound; assay type: biochemical; conditions: 15 minute incubation
[7] = target: T1, PDI; experiment: Insulin reductase assay; assay type: biochemical; conditions: 20 μM
Description: Insulin reductase assay. Insulin was prepared by mixing 12.5 mg/mL insulin in 50 mM Tris-HCl, pH 8. 1 M HCl was carefully added to drop the pH to 2.0 for solution clarification. Once the solution clarifies, 1 M NaOH was added to rapidly adjust the pH back to 8.0. The solution was then adjusted to 1.5 mM (10 mg/mL) with 50 mM Tris-HCl, aliquoted and stored in −20° C. until use. 2× concentrations of thiol isomerases were prepared (final concentrations as indicated in each assay) and mixed with 1.2 mM DTT (final 0.3 mM) and 0.4 mM insulin (final 0.1 mM) using a thiol isomerase activity assay buffer. Insulin precipitation from enzyme-mediated reduction was assayed in 96-well clear bottom plates at 650 nm absorption.

[8] = test system: SARS-CoV-2; conditions: cited from earlier work
[9] = target: T1, PDI; experiment: SDS-PAGE molecular weight shift (alkylation of PDI free thiols); assay type: biochemical
Source text: FIG. 5 is an image of gel showing detection of PDI free thiol by the labeling of acetamido maleimidylstilbene disulfonic acid (AMS), which shifts the protein to a higher apparent molecular weight.
4-acetomido-4′-maleimidylstilbene-2,2′ disulfonic acid (AMS), which shifts the mass of the protein by 500 Da for every cysteine alkylated, was used as a positive control. […] N-ethylmaleimide (NEM) was used for a control experiment because covalent alkylation of the free thiols will expectedly prevent PDI activity (FIG. 6A).

[10] = target: T3, ERp5 (Homo sapiens, UniProt Q15084); experiment: Di-eosin-GSSG disulfide reductase assay, ERp5; assay type: biochemical; conditions: 20 μM
T3 construct: recombinant His-tagged full-length ERp5, ERp72; His-tag; made in house; host or cells: Escherichia coli Origami B (DE3)
T3 sequence (Q15084 20-440): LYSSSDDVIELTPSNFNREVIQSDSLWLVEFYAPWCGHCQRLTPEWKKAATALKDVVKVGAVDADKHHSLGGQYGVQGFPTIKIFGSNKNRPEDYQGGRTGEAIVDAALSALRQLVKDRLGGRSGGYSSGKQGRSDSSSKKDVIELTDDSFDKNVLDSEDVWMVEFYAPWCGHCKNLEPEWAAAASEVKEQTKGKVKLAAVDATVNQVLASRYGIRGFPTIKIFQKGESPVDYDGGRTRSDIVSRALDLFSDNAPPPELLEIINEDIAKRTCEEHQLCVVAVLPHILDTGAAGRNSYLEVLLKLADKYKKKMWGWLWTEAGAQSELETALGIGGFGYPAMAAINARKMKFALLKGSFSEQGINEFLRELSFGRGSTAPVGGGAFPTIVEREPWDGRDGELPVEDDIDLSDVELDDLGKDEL
Source text: Recombinant protein purification. Recombinant ‘double-tagged’ (streptavidin-binding protein-tagged and FLAG-tagged) full-length PDI, ERp57, recombinant His-tagged full-length ERp5, ERp72, PDI domain fragments, and PDI mutant were cloned into a pET-15b vector at the NdeI and BamHI sites and transformed into Escherichia coli Origami B (DE3) cells (EMD Chemicals). The recombinant proteins were expressed and isolated by affinity chromatography with complete His-Tag purification resin (Roche Applied Science) or Pierce High-Capacity Streptavidin Agarose beads and purified on a Superdex 200 (GE Healthcare).
Di-eosin-GSSG disulfide reductase assay. […] Any fraction with a fold change >5 was kept.

[11] = test system: platelets; conditions: cited from earlier work
[12] = target: T2, SARS-CoV-2 M^pro; conditions: cited from earlier work
[13] = Table 1, IC50 curves on PDI activity (FIGS. 13B-E, 17A-E), read-out: Relative PDI inhibition

T1 sequence (P07237 18-508): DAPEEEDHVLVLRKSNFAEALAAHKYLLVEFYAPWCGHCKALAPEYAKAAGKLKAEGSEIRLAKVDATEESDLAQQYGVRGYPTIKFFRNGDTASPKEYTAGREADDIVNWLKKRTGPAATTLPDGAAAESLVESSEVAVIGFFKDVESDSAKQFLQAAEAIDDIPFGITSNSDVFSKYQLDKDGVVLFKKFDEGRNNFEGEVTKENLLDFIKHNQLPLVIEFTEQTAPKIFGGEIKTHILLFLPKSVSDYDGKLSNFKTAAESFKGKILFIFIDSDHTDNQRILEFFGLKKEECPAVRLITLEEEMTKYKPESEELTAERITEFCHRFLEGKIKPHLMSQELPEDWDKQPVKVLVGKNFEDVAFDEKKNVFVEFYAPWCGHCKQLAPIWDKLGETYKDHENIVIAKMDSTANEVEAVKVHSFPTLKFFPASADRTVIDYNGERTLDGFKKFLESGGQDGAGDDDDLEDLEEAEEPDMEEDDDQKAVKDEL

Compound	inhibition of isolated a′ domain cleavage of di-eosin-GSSG [1]	IC50 [2, 13] [µM]	inhibition of thiol isomerases (PDI, ERp57, ERp5) in words [6]	Inhibition of viral replication (cell system in which shown) [8]	inhibition of PDI (in words) [2]	also measured
O=C1O[C@H]2[C@@H]3OC(=O)c4cc(O)c(O)c(O)c4-c4c(O)c(O)c5oc(=O)c6c(c(O)c(O)c7oc(=O)c4c5c76)-c4c(cc(O)c(O)c4O)C(=O)OC[C@H]3OC(O)[C@@H]2OC(=O)c2cc(O)c(O)c(O)c2-c2c1cc(O)c(O)c2O (mixture of isomers) [Punicalagin]	inhibited the ability of isolated a′ domain to cleave di-eosin-GSSG	19	strong inhibition of thiol isomerases	293T-hACE2 and NIC-H460	–	vessels that never occluded ([3]; 10% FeCl3 for 3 min): ~50%; time for occlusion of vessels that clotted ([3]; compared to controls): consistently prolonged; IC50 ([4]; read-out: SARS-CoV-2 M^pro inhibition; literature values (Table 2); cited from earlier work): 5.7 µM; cessation of bleeding, Kaplan Meier curves [5]: prolonged bleeding; total bleeding time ([5]; 1 mm diameter tail transection): 110 s; inhibition of thiol isomerases (PDI, ERp57, ERp5) in words ([6]; listed as punicalagin): strong thiol isomerase inhibition; inhibition of the ability of PDI to reduce insulin [7]: inhibited the ability of PDI to reduce insulin; inhibition of SARS-CoV-2 / infection (in words) [8]: inhibits both SARS-CoV-2 M^pro and omicron variants of SARS-CoV-2 infection
CC(=O)Nc1ccc(C=Cc2ccc(N3C(=O)C=CC3=O)cc2S(=O)(=O)O)c(S(=O)(=O)O)c1 [AMS, 4-acetomido-4′-maleimidylstilbene-2,2′ disulfonic acid, reference compound]	–	–	–	–	–	shift in molecular weight of PDI in SDS polyacrylamide gel [9]: induced a slight increase in molecular mass
O=C(O[C@@H]1Cc2c(O)cc(O)cc2O[C@H]1c1ccc(O)c(O)c1)c1cc(O)c(O)c(O)c1 [Catechin 3-gallate]	–	> 20	some inhibition, particularly of ERp5	–	–	activity against ERp5 (in words) [10]: had activity against ERp5
Oc1cc(O)c2c(c1)O[C@H](c1cc(O)c(O)c(O)c1)[C@H](O)C2 [EGC, epigallocatechin]	–	> 500	relatively little activity	–	did not inhibit PDI; also recorded: inactive compounds against PDI	–
O=C(O[C@@H]1Cc2c(O)cc(O)cc2O[C@@H]1c1cc(O)c(O)c(O)c1)c1cc(O)c(O)c(O)c1 [EGCG, epigallocatechin gallate]	–	243	relatively little activity	–	did not inhibit PDI; also recorded: inactive compounds against PDI	–
O=C(O)c1cc(O)c(O)c(O)c1 [Gallic Acid, 3,4,5-trihydroxybenzoic acid]	–	–	Neither pinocembrin, gallic acid nor glucose showed substantial activity against thiol isomerases	–	inactive compounds against PDI	IC50 [2]: > 500 µM; inhibition of PDI (in words) ([2]; listed as gallate): failed to inhibit PDI
O=C1C[C@@H](c2ccccc2)Oc2cc(O)cc(O)c21 [Pinocembrin]	–	> 500	no activity	–	failed to inhibit PDI	–
O=C(OC[C@H]1O[C@@H](OC(=O)c2cc(O)c(O)c(OC(=O)c3cc(O)c(O)c(O)c3)c2)[C@H](OC(=O)c2cc(O)c(O)c(OC(=O)c3cc(O)c(O)c(O)c3)c2)[C@@H](OC(=O)c2cc(O)c(O)c(OC(=O)c3cc(O)c(O)c(O)c3)c2)[C@@H]1OC(=O)c1cc(O)c(O)c(OC(=O)c2cc(O)c(O)c(O)c2)c1)c1cc(O)c(O)c(OC(=O)c2cc(O)c(O)c(O)c2)c1 [Tannic acid]	inhibited the ability of isolated a′ domain to cleave di-eosin-GSSG	8.5	potently inhibited all thiol isomerases tested	293T-hACE2 and NIC-H460	inhibit PDI	antiplatelet activities [11]: have antiplatelet activities; Modeling shows gallic acid interaction with His41 or Glu166 [12]: His41; Glu166; hydrogen bonding with M^pro in published molecular dynamic simulations [12]: hydrogen bonding of TA with M^pro Cys145; inhibition of the ability of PDI to reduce insulin [7]: inhibited the ability of PDI to reduce insulin; inhibition of SARS-CoV-2 / infection (in words) [8]: blocks SARS-CoV-2 virus infection in 293T cells expressing hACE2
O=C(O[C@@H]1Cc2c(O)cc(O)cc2O[C@@H]1c1cc(=O)c(O)c2c(O)c(O)cc([C@H]3Oc4cc(O)cc(O)c4C[C@H]3O)c2c1)c1cc(O)c(O)c(O)c1 [Theaflavin 3-gallate]	inhibited the ability of isolated a′ domain to cleave di-eosin-GSSG	3.4	strong inhibition of all three thiol isomerases	Vero Cells	–	IC50 ([4]; literature values (Table 2); read-out: SARS-CoV-2 M^pro inhibition; cited from earlier work): 18.5 µM; inhibition of the ability of PDI to reduce insulin [7]: inhibited the ability of PDI to reduce insulin; reduction of viral counts ([8]; Vero cell assay): 75%
O=c1c(O)cc([C@H]2Oc3cc(O)cc(O)c3C[C@H]2O)cc2c([C@H]3Oc4cc(O)cc(O)c4C[C@H]3O)cc(O)c(O)c12 [Theaflavin]	–	> 500	poor inhibition	–	failed to inhibit PDI; also recorded: inactive compounds against PDI	–
O=c1cc(-c2ccc(O)cc2)oc2cc(O)cc(O)c12 [apigenin, reference compound]	–	–	–	–	–	inhibition of SARS-CoV-2 / infection (in words) [8]: inhibitors of SARS-CoV-2
Catechin	–	–	–	–	–	activity against ERp5 (in words) [10]: had activity against ERp5
theaflavin 3-3′-digallate [Theaflavin 3,3′-gallate]	inhibited the ability of isolated a′ domain to cleave di-eosin-GSSG	–	strong inhibition of all three thiol isomerases	VeroE6/TMPRSS2	–	inhibition of isolated PDI fragments ([1]; a, ab, b′xa′, abb′ fragments, PGHG at 10 μM): inhibited isolated a and a′ fragments as well as ab, b′xa′ and abb′x fragments
